What was measured:
[1] = molecular target: T1, Sodium-dependent dopamine transporter (Rattus norvegicus, UniProt P23977); test: Displacement of [3H]WIN35,428 from Sprague-Dawley rat brain DAT after 120 mins by liquid scintillation counting analysis; assay type: tissue-based
[2] = molecular target: Sodium-dependent serotonin transporter (Rattus norvegicus, UniProt P31652); test: Displacement of [3H]citalopram from Sprague-Dawley rat brain SERT after 60 mins by liquid scintillation counting analysis; assay type: tissue-based
[3] = species: Rattus norvegicus; test: Displacement of [3H]nisoxetine from Sprague-Dawley rat brain NET at 100 uM after 180 mins by liquid scintillation counting analysis relative to control; assay type: tissue-based
[4] = molecular target: Sodium-dependent serotonin transporter (Rattus norvegicus) (UniProt P31652); test: Displacement of [3H]citalopram from Sprague-Dawley rat brain SERT at 100 uM after 60 mins by liquid scintillation counting analysis relative to control; assay type: tissue-based
[5] = Displacement of [3H]nisoxetine from Sprague-Dawley rat brain NET after 180 mins by liquid scintillation counting analysis; assay type: tissue-based
[6] = molecular target: T1, Sodium-dependent dopamine transporter; test: Displacement of [3H]WIN35,428 from rat brain DAT; assay type: tissue-based
[7] = species: Rattus norvegicus; test: Selectivity ratio of Ki for Sprague-Dawley rat brain SERT to Ki for Sprague-Dawley rat brain DAT

T1 sequence (P23977 whole entry): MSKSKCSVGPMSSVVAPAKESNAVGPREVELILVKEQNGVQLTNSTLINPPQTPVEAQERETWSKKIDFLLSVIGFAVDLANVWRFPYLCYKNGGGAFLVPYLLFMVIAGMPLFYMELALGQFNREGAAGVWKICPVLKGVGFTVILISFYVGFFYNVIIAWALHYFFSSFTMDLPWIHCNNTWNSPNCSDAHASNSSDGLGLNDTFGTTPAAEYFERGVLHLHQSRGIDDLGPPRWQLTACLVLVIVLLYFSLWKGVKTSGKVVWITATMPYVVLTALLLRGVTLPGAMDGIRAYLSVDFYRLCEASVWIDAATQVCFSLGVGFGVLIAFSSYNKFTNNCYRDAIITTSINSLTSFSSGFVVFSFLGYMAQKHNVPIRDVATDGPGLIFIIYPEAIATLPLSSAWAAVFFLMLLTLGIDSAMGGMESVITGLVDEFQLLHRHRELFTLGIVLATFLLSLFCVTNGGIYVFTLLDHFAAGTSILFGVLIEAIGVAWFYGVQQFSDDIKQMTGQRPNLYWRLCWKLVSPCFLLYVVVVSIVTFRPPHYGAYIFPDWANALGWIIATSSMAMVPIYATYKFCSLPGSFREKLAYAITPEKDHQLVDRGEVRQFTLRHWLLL
Chain of Sodium-dependent serotonin transporter (Rattus norvegicus) (P31652 whole entry): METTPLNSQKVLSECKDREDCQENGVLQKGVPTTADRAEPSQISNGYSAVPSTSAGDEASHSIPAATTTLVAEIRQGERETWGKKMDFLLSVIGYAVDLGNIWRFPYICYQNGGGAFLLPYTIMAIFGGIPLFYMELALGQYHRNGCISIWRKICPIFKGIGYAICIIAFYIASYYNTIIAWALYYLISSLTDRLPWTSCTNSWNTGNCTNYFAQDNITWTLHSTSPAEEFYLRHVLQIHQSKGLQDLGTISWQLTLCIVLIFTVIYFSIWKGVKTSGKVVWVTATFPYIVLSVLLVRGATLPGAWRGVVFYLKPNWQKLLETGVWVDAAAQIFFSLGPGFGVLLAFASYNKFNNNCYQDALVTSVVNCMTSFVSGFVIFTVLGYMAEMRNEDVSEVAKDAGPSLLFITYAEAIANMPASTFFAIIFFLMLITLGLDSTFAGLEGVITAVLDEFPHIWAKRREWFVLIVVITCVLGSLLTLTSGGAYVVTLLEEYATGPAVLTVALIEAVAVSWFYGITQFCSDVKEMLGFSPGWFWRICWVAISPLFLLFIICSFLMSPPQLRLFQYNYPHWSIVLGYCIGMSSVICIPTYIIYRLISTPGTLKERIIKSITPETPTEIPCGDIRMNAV
Chain of Sodium-dependent serotonin transporter (P31652 whole entry): as above

Compound	Ki [1] [µM]	Ki [2] [µM]	inhibition [3] [%]	inhibition [4] [%]	Ki [5] [µM]	other results
O=C(CSC(c1ccc(F)cc1)c1ccc(F)cc1)NCC1CC1	6.7	34	–	–	–	–
NCCSC(c1ccccc1)c1ccccc1	–	0.221	–	–	–	–
NC(=O)C[S+]([O-])C(c1cccc(Cl)c1)c1cccc(Cl)c1 (stereo not given)	–	–	< 50	< 50	–	–
CCCCNC(=O)CSC(c1ccccc1)c1ccccc1	–	–	< 50	< 50	–	–
[O-][S+](CCNCCCc1ccccc1)C(c1ccc(Br)cc1)c1ccc(Br)cc1 (stereo not given)	1.27	0.557	–	–	8.65	–
c1ccc(CCCNCCSC(c2ccccc2)c2ccccc2)cc1	–	0.927	–	–	5.5	–
CCCCNCC[S+]([O-])C(c1ccccc1)c1ccccc1 (stereo not given)	–	63.6	–	–	138	–
O=C(C[S+]([O-])C(c1ccc(Br)cc1)c1ccc(Br)cc1)NCCCc1ccccc1 (stereo not given)	–	0.892	< 50	–	–	–
NC(=O)CSC(c1ccccc1)c1ccccc1	–	–	< 50	–	285	–
O=C(CSC(c1ccc(Br)cc1)c1ccc(Br)cc1)NCCCc1ccccc1	0.238	–	–	–	35.5	–
NCC[S+]([O-])C(c1ccccc1)c1ccccc1 (stereo not given)	–	3.38	–	–	–	–
O=C(CSC(c1ccc(Br)cc1)c1ccc(Br)cc1)NCC1CC1	0.975	7.03	< 50	–	–	–
O=C(CSC(c1ccc(F)cc1)c1ccc(F)cc1)NCCCc1ccccc1	–	3.5	< 50	–	–	–
CCCCNCCSC(c1ccccc1)c1ccccc1	0.31	5.7	–	–	11.5	–
O=C(CSC(c1ccccc1)c1ccccc1)NCCCCc1ccccc1	–	–	–	< 50	–	–
Cc1ccc(C(c2ccc(C)cc2)[S+]([O-])CC(N)=O)cc1 (stereo not given)	–	–	< 50	< 50	–	–
NC(=O)C[S+]([O-])C(c1ccccc1)c1cccc(Br)c1 (racemic)	–	–	< 50	< 50	–	–

Compound	Ki [1] [µM]	Ki [2] [µM]	inhibition [3] [%]	inhibition [4] [%]	Ki [5] [µM]	other results
CC(=O)N1[C@@H]2CC[C@H]1C[C@H](OC(c1ccc(F)cc1)c1ccc(F)cc1)C2	–	–	–	–	–	Ki [6]: 2.34 µM
CNC(=O)CSC(c1ccccc1)c1ccccc1	–	656	–	–	–	–
CNC(=O)CSC(c1ccc(Cl)cc1)c1ccc(Cl)cc1	–	10.7	–	–	–	–
CCCNC(=O)CSC(c1ccc(Cl)cc1)c1ccc(Cl)cc1	–	10.1	–	–	–	–
O=C(CSC(c1ccc(Br)cc1)c1ccc(Br)cc1)NCCCCc1ccccc1	–	–	< 50	< 50	–	–
CNC(=O)CSC(c1ccc(Br)cc1)c1ccc(Br)cc1	–	–	–	–	11	–
NC(=O)C[S+]([O-])C(c1cccc(F)c1)c1cccc(F)c1 (stereo not given)	5.93	–	< 50	< 50	–	–
CCCNC(=O)CSC(c1ccc(F)cc1)c1ccc(F)cc1	–	44.2	–	–	59.7	–
CCCNC(=O)CSC(c1ccccc1)c1ccccc1	–	419	–	< 50	68	–
NC(=O)CSC(c1cccc(Cl)c1)c1cccc(Cl)c1	–	808	–	< 50	45.4	Ratio Ki [7]: > 2900
O=C(CSC(c1ccccc1)c1ccccc1)NCC1CC1	13.6	20.5	< 50	–	–	–
[O-][S+](CCNCCCc1ccccc1)C(c1ccc(Cl)cc1)c1ccc(Cl)cc1 (stereo not given)	0.645	0.553	–	–	5.67	–
CCCNC(=O)CSC(c1ccc(Br)cc1)c1ccc(Br)cc1	–	–	–	–	10.6	–
[O-][S+](CCNCCCc1ccccc1)C(c1ccc(F)cc1)c1ccc(F)cc1 (stereo not given)	0.183	1.28	–	–	–	–
CNC(=O)C[S+]([O-])C(c1ccccc1)c1ccccc1 (stereo not given)	13.1	–	< 50	< 50	–	–
C=CCNC(=O)CSC(c1ccccc1)c1ccccc1	8.37	303	< 50	< 50	171	–

Reference: ChEMBL document CHEMBL3124844 (J Med Chem, 2014)
